Measured values taken from publication PMC7792611, “The Delta-Specific Opioid Glycopeptide BBI-11008: CNS Penetration and Behavioral Analysis in a Preclinical Model of Levodopa-Induced Dyskinesia” (International Journal of Molecular Sciences, 2020).
Values joined by “and” are separate entries in the source; they are usually repeats but may differ in a detail not shown here. Equal values may be shown once. “Also recorded” adds a separate entry of the source. Read-outs that look alike come from different tables or passages of the source. Non-standard residues stand in square brackets, D forms with d. Residues, ends and D or L forms follow the SMILES beside them. *: point of attachment. βGlc = OC[C@H]1O[C@@H](*)[C@H](O)[C@@H](O)[C@@H]1O; Nle = CCCC[C@H](N)C(=O)O

Columns and labels:
[1] = system: L-DOPA-induced dyskinesia (LID) models; details: cited from earlier work
tail-withdrawal assay = details: mice, intravenous administration; ref Bilsky and Polt, personal communication; cited from earlier work
human DOR = molecular target: T1, human DOR (Homo sapiens, UniProt P41143); test: Opioid receptor binding, inhibition of [3H]naltrindole binding to CHO cell membranes; details: for % Inhibition at DOR: 0.2 nM [3H]naltrindole
T1 construct: expressed in transfected cells

human MOR = molecular target: T2, human MOR (Homo sapiens, UniProt P35372); test: Opioid receptor binding, inhibition of [3H]DAMGO binding to CHO cell membranes; details: for % Inhibition at MOR: 0.25 nM [3H]DAMGO
T2 construct: expressed in transfected cells

[2] = system: L-DOPA-induced abnormal involuntary movements in 6-OHDA-lesioned rats; test: L-DOPA-induced dyskinesia model in unilateral 6-OHDA-lesioned rats, AIMs scoring; format: in vivo, rat; details: MK-801 0.3 mg/kg i.p., 25 min prior to L-DOPA
Method: Male Sprague-Dawley rats (250 g; Harlan, Indianapolis, IN, USA), were housed in a temperature and humidity-controlled room with 12 h light/dark cycles with food and water available ad libitum. All animals were treated as approved by the Institutional Animal Care and Use Committee at the University of Arizona (Protocol number: 10-204; amendment approval date: 20 August 2012) and in accordance with the NIH Guidelines for the Care and Use of Laboratory Animals. The number of animals used, and their suffering were minimized.
All surgical procedures were performed as published in our prior work unless otherwise stated. […]
Rats showing ipsiversive rotations were selected and treated daily (i.p.) for 3 weeks with a combination of L-DOPA (7 mg/kg) and benserazide (14 mg/kg, MilliporeSigma). […] Baseline L-DOPA-induced LAO and locomotor AIMs (mean ± SEM) were determined over 3 testing sessions, before testing of the compounds was begun. […]
L-DOPA-induced AIMs were scored by an experimentally blinded investigator according to [57]. […] In order to quantify the severity of the AIMs, rats were observed individually in their standard cages every 20th min between 20 and 180 min after an injection of L-DOPA. […]

human KOR = molecular target: T3, human KOR (Homo sapiens, UniProt P41145); test: Opioid receptor binding, [3H]U69593 binding to CHO cell membranes; details: 1 nM [3H]U69593; cells print % values
T3 construct: expressed in transfected cells
Method: Opioid Receptor Binding: Opioid receptor binding assays were performed as previously described. Membranes from CHO cells stably expressing either the human DOR, MOR, or KOR were used in the binding experiments. […] [^3H]U69593 at a concentration of 1 nM was used to measure binding to the KOR. […] BBI-11008 was chosen for further study.

[3] = In vivo microdialysis in the dorsolateral striatum with LC-MS; details: 10 mg/kg i.p., rat
Method: Adult male Sprague–Dawley rats (Harlan, Indianapolis, IN, USA) weighing between 250 and 350 g were used for all experiments (n = 6). Rats were housed in a temperature and humidity-controlled room with 12 h light/dark cycles with food and water available ad libitum. All animals were treated as approved by the University of Michigan Unit for Laboratory Animal Medicine (Protocol: 08516; approval date: 4 April 2011) and in accordance with the National Institute of Health (NIH) Guidelines for the Care and Use of Laboratory Animals. The number of animals used, and their suffering were minimized.
We performed in vivo microdialysis in the rat DLS and applied LC-MS analytical techniques to quantify brain concentrations of the deltorphin analogue BBI-11008, following systemic treatment, and of endogenous leu-enkephalin levels both before and after treatment. These experiments were performed in awake, freely moving rats, implanted with microdialysis probes in the DLS 24 h prior to the experiments. The animals were fully recovered, their wounds healed, and the probes were fixed in place with dental cement. The details of the microdialysis procedure to detect glycopeptides in the rat striatum has been described in detail in [27], with the following minor modifications: the concentric microdialysis probes were slightly larger at 3 mm, and the microdialysis probes were flushed at a lower flow rate of 0.7 µL/min.

T2 sequence (P35372 whole entry): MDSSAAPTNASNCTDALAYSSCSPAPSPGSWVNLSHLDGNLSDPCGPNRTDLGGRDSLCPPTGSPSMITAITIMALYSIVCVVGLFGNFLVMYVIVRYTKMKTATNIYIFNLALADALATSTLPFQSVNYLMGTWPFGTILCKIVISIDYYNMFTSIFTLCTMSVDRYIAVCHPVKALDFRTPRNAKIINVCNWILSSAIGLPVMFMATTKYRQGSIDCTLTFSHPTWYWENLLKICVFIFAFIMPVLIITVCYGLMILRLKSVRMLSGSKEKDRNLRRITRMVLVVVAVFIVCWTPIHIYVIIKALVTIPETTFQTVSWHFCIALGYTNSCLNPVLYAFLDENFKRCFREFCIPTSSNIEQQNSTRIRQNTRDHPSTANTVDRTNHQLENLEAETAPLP
T1 sequence (P41143 whole entry): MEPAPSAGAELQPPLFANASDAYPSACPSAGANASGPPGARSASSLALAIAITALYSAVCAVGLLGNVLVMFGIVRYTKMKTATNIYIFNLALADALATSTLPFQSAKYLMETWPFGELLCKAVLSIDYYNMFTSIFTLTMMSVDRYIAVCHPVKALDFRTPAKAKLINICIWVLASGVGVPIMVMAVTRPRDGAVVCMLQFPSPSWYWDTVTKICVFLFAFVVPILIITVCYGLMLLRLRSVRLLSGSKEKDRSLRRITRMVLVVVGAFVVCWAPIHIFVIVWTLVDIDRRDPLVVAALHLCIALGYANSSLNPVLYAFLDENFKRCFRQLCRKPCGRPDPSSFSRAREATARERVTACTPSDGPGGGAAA
T3 sequence (P41145 whole entry): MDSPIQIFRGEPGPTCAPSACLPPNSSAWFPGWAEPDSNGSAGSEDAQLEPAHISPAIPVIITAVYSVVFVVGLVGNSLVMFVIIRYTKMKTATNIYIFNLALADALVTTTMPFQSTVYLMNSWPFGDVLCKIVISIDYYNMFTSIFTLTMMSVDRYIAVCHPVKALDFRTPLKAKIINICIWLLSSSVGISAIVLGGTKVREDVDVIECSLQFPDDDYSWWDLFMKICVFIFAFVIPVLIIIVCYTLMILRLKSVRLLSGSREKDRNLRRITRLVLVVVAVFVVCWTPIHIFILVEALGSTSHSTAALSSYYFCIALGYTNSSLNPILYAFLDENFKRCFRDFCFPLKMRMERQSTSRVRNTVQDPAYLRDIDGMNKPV

Compound	% Inhibition at DOR (human DOR; peptide 100 nM)	% Inhibition at DOR (human DOR; peptide 1 µM)	% Inhibition at MOR (human MOR; peptide 100 nM)	% Inhibition at MOR (human MOR; peptide 1 µM)	further results
CNC1(c2ccccc2Cl)CCCCC1=O (stereo not drawn) [ketamine]					effect on LID and Parkinsonism ([1]; sub-anesthetic treatment, rodent models): anti-dyskinetic and anti-Parkinsonian
Oc1ccc2c3c1O[C@H]1[C@@H](O)CC[C@@]4(O)[C@@H](C2)N(CC2CCC2)CC[C@]314 [nalbuphine]					effect on LID ([1]; dyskinetic non-human LID primates): reduce LID
YaFEVVG-CONH2 [deltorphin]					antinociceptive effect in the tail-withdrawal assay (tail-withdrawal assay): lacks this activity
H2N-YmFHLM-S(β-D-Glc) [BBI-11001]	72%	84%	63%	89%	
C[C@]12N[C@H](Cc3ccccc31)c1ccccc12 [MK-801, Dizocilpine]					effect on L-DOPA-induced LAO AIMs [2]: reduced levodopa-induced LAO AIMs; also recorded: does reduce LAO-AIMs; also recorded: efficiently blocked LAO AIMs; ipsiversive pro-Parkinsonian locomotor activity [2]: worsened PD symptoms; also recorded: induces ipsiversive pro-Parkinsonian locomotor activity; also recorded: caused ipsiversive turns
CCCC[C@H](NC(=O)[C@H](CCC(=O)O)NC(=O)[C@H](Cc1ccccc1)NC(=O)[C@@H](C)NC(=O)[C@@H](N)Cc1ccc(O)cc1)C(=O)N[C@@H](CCCC)C(=O)N[C@H](C(N)=O)[C@@H](C)O [BBI-11009, H2N-YaFE-Nle-Nle-T] (H-Y[dA]FE[Nle][Nle]T-NH2)					Ki (human DOR): 11 nM; Ki (human MOR): 510 nM; % Inhibition at KOR (human KOR): 3.7%
CTAP					effect on LID ([1]; highly-selective MOR antagonists): did not reduce LID
H2N-YaFHLAT-(β-D-Glc) [BBI-11004]	61%	76%	88%	98%	
H2N-YmFHLMT-(β-D-Glc) [BBI-11003]	75%	83%	57%	89%	
H2N-YaFHLA-S(β-D-Glc) [BBI-11002]	55%	77%	82%	97%	
CCN(CC)C(=O)c1ccc([C@H](c2cccc(O)c2)N2C[C@@H](C)N(Cc3cccc(F)c3)C[C@@H]2C)cc1 [DPI-289]					effect on LID ([1]; rodent and non-human primate LID models): anti-dyskinetic
CCCC[C@H](NC(=O)[C@H](CCC(=O)O)NC(=O)[C@H](Cc1ccccc1)NC(=O)[C@@H](C)NC(=O)[C@@H](N)Cc1ccc(O)cc1)C(=O)N[C@@H](CCCC)C(=O)N[C@H](C(N)=O)[C@@H](C)O[C@@H]1O[C@H](CO)[C@@H](O)[C@H](O)[C@H]1O [BBI-11008, H2N-YaFE-Nle-Nle-T-(β-D-Glc)] (H-Y[dA]FE[Nle][Nle]T(βGlc)-NH2)					peak BBI-11008 level relative to baseline endogenous leu-enkephalin [3]: 10 fold; peak BBI-11008 concentration in dorsolateral striatum dialysate ([3]; 10 min post-injection): 150 pM and > 150 pM; level at time molar at 1 h ([3]; male, Sprague-Dawley, in vivo, ip, 10 mg/kg, 60 min, read-out: striatal BBI-11008 concentration at 60 min post-injection (mean)): ~0.037 nM
Lactomorphin [MMP-2200]					effect on MK-801-induced pro-Parkinsonian activity ([1]; co-administration with MK-801, rodent LID model): attenuated the pro-Parkinsonian activity of MK-801
